pIC50: −log10 of the molar value. Read-outs that look alike come from different tables or passages of the source.

One assay addresses T1, human cyclooxygenase-2 (Homo sapiens, UniProt P35354).
T1 sequence (P35354 18-604): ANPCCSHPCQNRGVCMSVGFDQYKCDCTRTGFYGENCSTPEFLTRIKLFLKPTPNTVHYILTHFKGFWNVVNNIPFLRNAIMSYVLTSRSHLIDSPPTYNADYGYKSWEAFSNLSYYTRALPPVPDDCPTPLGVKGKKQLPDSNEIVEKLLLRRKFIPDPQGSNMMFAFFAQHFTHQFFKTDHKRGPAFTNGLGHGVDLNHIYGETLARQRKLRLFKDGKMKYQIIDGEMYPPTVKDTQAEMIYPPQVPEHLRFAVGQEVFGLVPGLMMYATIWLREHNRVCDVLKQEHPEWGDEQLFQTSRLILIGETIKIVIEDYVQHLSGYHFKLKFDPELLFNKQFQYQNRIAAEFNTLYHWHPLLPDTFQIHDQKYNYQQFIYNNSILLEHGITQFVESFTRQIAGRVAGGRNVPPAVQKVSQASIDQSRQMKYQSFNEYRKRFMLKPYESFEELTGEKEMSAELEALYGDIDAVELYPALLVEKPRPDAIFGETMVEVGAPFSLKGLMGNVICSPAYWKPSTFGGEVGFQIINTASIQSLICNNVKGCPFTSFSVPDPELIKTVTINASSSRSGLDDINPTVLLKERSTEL
Put plainly: Inhibitory action on cyclooxygenase-2 (conversion of 14C arachidonic acid into PGH2). The conditions noted are these: for COX-1/COX-2: ratio of IC50 COX-1 to IC50 COX-2.

In assay [1] the target is cyclooxygenase-1 prepared from human platelets (Homo sapiens, UniProt P23219). In words: Inhibitory action on cyclooxygenase-1 (conversion of 14C arachidonic acid into PGH2). It counts as biochemical. To be noted: enzyme prepared from human platelets; preincubation 24° C. 5 minutes; read-out: IC50 (μM) COX-1. An excerpt:
(Inhibitory Action on Cyclooxygenase)
Inhibition (%)=(1−A/B)×100

For assay [2], the system named is carrageenin-induced podedema. In words: Effects on carrageenin-induced podedema. The format is in vivo, male Donryu rats. The conditions noted are these: p.o. one hour before carrageenin; limb volume 3 hours after carrageenin; dose inhibiting by 30% relative to control group. The protocol: (Effects on Carrageenin-induced Podedema)
Carrageenin (1%, 0.05 ml) dissolved in physiological saline was subcutaneously injected to the left hindlimb of male Donryu rats to induce podedema. The degree of podedema was evaluated by measuring the volume of the limb 3 hours after carrageenin administration. A test compound (1, 3, 10 or 30 mg/kg) was orally administered one hour before carrageenin administration, and suppression thereby was studied. Inhibitory activity was expressed by the dose (ED30) of the test compound necessary for inhibiting by 30% relative to the control group.
A general note: The carrageenan paw model is a standard test of acute inflammation.

cyclooxygenase-1 prepared from human platelets, sequence (P23219 24-599): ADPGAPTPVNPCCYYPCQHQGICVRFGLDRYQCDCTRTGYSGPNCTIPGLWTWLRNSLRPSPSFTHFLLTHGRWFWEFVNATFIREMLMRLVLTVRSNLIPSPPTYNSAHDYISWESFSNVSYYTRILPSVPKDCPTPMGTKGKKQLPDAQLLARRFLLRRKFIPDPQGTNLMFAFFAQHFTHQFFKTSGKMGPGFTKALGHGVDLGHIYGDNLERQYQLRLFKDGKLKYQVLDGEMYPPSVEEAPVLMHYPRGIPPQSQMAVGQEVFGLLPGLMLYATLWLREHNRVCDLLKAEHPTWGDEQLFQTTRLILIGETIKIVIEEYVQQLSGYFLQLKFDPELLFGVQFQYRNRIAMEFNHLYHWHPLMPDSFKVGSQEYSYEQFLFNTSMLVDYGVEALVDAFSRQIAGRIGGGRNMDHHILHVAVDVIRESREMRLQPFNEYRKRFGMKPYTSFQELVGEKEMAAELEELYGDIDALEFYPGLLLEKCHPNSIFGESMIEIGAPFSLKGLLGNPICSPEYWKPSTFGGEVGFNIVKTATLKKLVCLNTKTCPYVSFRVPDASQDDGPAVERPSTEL
Description for human cyclooxygenase-2: The enzymatic activity was determined from the percent conversion of ^14C arachidonic acid into prostaglandin H2 (PGH2) and the decomposed product thereof. That is, a test sample (20 μl), an enzyme solution (20 μl) and distilled water (10 μl) were added to 100 mM Tris-HCl buffer (pH 8, 140 μl) containing hematin (2 μM) and tryptophan (5 mM), and the mixture was thoroughly stirred, which was followed by preincubation at 24° C. for 5 minutes. Then, a ^14C arachidonic acid solution (10 μl) was added and the mixture was reacted at 24° C., whereafter a solution (40 μl) of ethyl ether/methanol/1M citric acid (30/4/1) ice-cooled to −20° C. was added to stop the reaction. The reaction mixture was centrifuged for 5 minutes at 3,000 rpm to give an ether layer which was placed on a thin plate, and developed with ethyl ether/methanol/acetic acid (90/2/0.1) to determine percent conversion (A) from arachidonic acid to PGH2 and the decomposed product thereof.
An enzyme prepared from human platelets was used as an enzyme solution of cyclooxygenase-1, and an enzyme expressed by a yeast, into which cDNA of human cyclooxygenase-2 had been introduced using a kit of Invitrogen Corp., was used as an enzyme solution of cyclooxygenase-2.

Turning to `Cc1nc(C2CCCCC2)c(-c2ccc(S(N)(=O)=O)cc2)o1` [Control 1, reference compound], the COX-1/COX-2 on human cyclooxygenase-2 worked out at 643.
With `Cc1nc(-c2ccc(F)cc2)c(-c2ccc(S(N)(=O)=O)cc2)o1` [Control 2, reference compound], the IC50 in assay [1] worked out at 5 µM; at human cyclooxygenase-2 (read-out: IC50 (μM) COX-2, enzyme expressed by yeast with cDNA of human cyclooxygenase-2, preincubation 24° C. 5 minutes), 0.02 µM.
With `Cc1nc(C2CCCCC2)c(-c2ccc(S(N)(=O)=O)c(F)c2)o1` [Example 2, 5-(4-aminosulfonyl-3-fluorophenyl)-4-cyclohexyl-2-methyloxazole], in assay [2], the “carrageenin-induced podedema in rats, ED30 (mg/kg p.o.)” value is 5.5 mg/kg. Moreover, in assay [1], the IC50 was greater than 100 µM. Moreover, on human cyclooxygenase-2, the COX-1/COX-2 is recorded as >1,428.
With `Cc1nc(C2CCCCC2)c(-c2ccc(S(C)(=O)=O)c(F)c2)o1` [Example 3, 4-cyclohexyl-5-(3-fluoro-4-methylsulfonylphenyl)-2-methyloxazole], on human cyclooxygenase-2, the COX-1/COX-2 is listed as greater than 333.
Consider `Cc1nc(C2CCCCC2)c(-c2ccc(S(N)(=O)=O)c(Cl)c2)o1` [Example 4], for which, at human cyclooxygenase-2, the pIC50 is less than 5.00.
The same measure, in the same setting: the same measure for `Cc1nc(C2CCCCC2)c(-c2ccc(S(N)(=O)=O)c(C)c2)o1` [Example 5]: less than 5.00.
As to `Cc1nc(C2CCCCC2)c(-c2cc(F)c(S(N)(=O)=O)c(F)c2)o1` [Example 6], at human cyclooxygenase-2, the COX-1/COX-2 was greater than 625.
Regarding `Cc1nc(-c2ccc(F)cc2)c(-c2ccc(S(N)(=O)=O)c(F)c2)o1` [Example 7, 5-(4-aminosulfonyl-3-fluorophenyl)-4-(4-fluorophenyl)-2-methyloxazole], on human cyclooxygenase-2, the COX-1/COX-2 is 1,233.
Turning to `COc1ccc2c(c1)c(CC(=O)O)c(C)n2C(=O)c1ccc(Cl)cc1` [Indomethacin, reference compound], the “carrageenin-induced podedema in rats, ED30 (mg/kg p.o.)” value in assay [2] is recorded as 2.9 mg/kg.

What is called IC50 is the midpoint of a concentration-inhibition curve. By pIC50 is commonly meant −log10 of the IC50, conventionally taken in molar units.

Source of the values: patent US20020143040A1, “Heterocyclic aromatic oxazole compounds and use thereof” (priority 1994, published 2002).
